Measurements: patent US20120083522A1, “MODULATION OF INFLAMMATORY RESPONSES BY FACTOR XI” (Isis Pharmaceuitcals, inc., priority 2009, published 2012)
In the oligonucleotide strings, read from the 5' end, every base follows the letter of its sugar. An asterisk marks phosphorothioate; unmarked linkages are phosphodiester. Other units and linkages are bracketed, terminal groups are in braces. A string of capitals states the bases alone. e = 2'-O-(2-methoxyethyl) (MOE); [5mC] = 5-methylcytosine; d = 2'-deoxy (DNA)

How the values were obtained:
[1] = Cynomolgus monkeys: hematology assays (Example 29); format: in vivo
Method in brief: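 Groups of 2 male and 3 female monkeys got subcutaneous oligonucleotide or PBS, escalating 5, 10, then 25 mg/kg two or three times weekly over 12 weeks; one group received a chronic 5 then 10 mg/kg regimen. Blood was sampled 14 and 5 days pre-dose, then weekly, for hematology; necropsy on day 85.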

[2] = test system: thrombin-antithrombin (TAT) complexes; assay: Colitis Study D: TAT levels in colon; format: in vivo, Swiss Webb mice; settings: for TAT levels in colon: DSS-treated mice
Protocol: (§1) In a first group of 8 Swiss Webb mice, 10 mg/kg of ISIS 404071 was injected subcutaneously twice a week for 3 weeks. In a second group of 8 Swiss Webb mice, 20 mg/kg of ISIS 404057 was subcutaneously injected twice a week for 3 weeks. In a third control group of 8 Swiss Webb mice, 40 mg/kg of ISISI 404057 was injected subcutaneously twice a week for 3 weeks. Two control groups of 8 mice each were injected with PBS twice a week for 3 weeks. After the oligonucleotide treatment, 4% DSS in water was administered ad libitum for 7 days to all the experimental groups and one PBS control group.
Mice with dextran sodium sulfate (DSS)-induced colitis have elevated level of thrombin-antithrombin (TAT) complexes in blood (Anthoni, C. et al., J. Exp. Med. 204: 1595-1601, 2007) that is also observed in patients with ulcerative colitis (Kume, K. et al., Intern Med. 2007. 46: 1323-9). The effect of antisense inhibition of Factor XI on TAT levels in the colon was evaluated (Thrombi-Anti-Thrombin III complex, Siemens Healthcare Diagnostics, Deerfield, Ill.) and the results are presented in Table 30.

[3] = test system: DSS-induced colitis model; assay: Colitis Study C: stool softness/diarrhea; format: in vivo, mice; settings: after seven days
Protocol: A third study on colitis using Factor XI oligonucleotide (ISIS 404071, SEQ ID NO: 11) was conducted. The study was performed essentially as described earlier in this example. A stool softness/diarrhea study was conducted.

[4] = test system: Factor XI mRNA; assay: Colitis Study E: Factor XI mRNA levels; format: in vivo, Swiss Webb mice; settings: compared to untreated PBS control; for % inhibition of Factor XI mRNA levels: DSS-treated mice, 40 mpk
Protocol: Two groups 8 Swiss Webb mice were dosed with 40 mg/kg of ISIS 404071 injected subcutaneously twice a week for 3 weeks. Two control groups of 8 Swiss Webb mice were dosed with PBS subcutaneously twice a week for 3 weeks. Both the ASO treated groups and one of the control groups were then given 4% DSS in distilled water for 7 days ad libitum. One of the ASO and DSS treated groups was also given intravenous injections of 20 μg of recombinant human Factor XI protein (Haematologic Technologies Inc.) for 7 consecutive days, starting the day before DSS treatment. Mice were sacrificed at the end of the study on day 7 after DSS was administered.

[5] = test system: bradykinin; assay: Colitis Study D: bradykinin levels in colon; format: in vivo, Swiss Webb mice; settings: for Bradykinin levels in colon: DSS-treated mice
Protocol: as §1
The effect of antisense inhibition of Factor XI on kinin levels in the colon was evaluated (Phoenix Pharmaceuticals, Burlingame, Calif.) and the results are presented in Table 32.

[6] = test system: DSS-induced colitis model; assay: Colitis Study A: colon tissue histopathology
[7] = Arthritis Study B: liver and spleen weight, ALT, AST; format: in vivo; settings: collagen-treated DBA/1J mice, 20 mg/kg s.c. twice a week for ten weeks
Protocol: In a group of 20 DBA/1J mice, 20 mg/kg of ISIS 404071 were injected subcutaneously twice a week for ten weeks. In a second group of 20 DBA/1J mice, 20 mg/kg of ISIS 404057 were injected subcutaneously twice a week for ten weeks. In a third control group of 20 DBA/1J mice, 20 mg/kg of ISIS 421208 were injected subcutaneously twice a week for ten weeks. Two control groups of 20 mice each were injected with PBS twice a week for ten weeks.
Mice in all groups were examined daily after day 30 after the first collagen injection for the visual appearance of arthritis in peripheral joints. The results in Table 22 are expressed as percent change compared to the PBS control except for the liver and spleen weight.

Substance “ISIS 416850: gapmer of Table 8 (antisense eT*eG*e[5mC]*eA*e[5mC]*dA*dG*dT*dT*dT*d[5mC]*dT*dG*dG*d[5mC]*eA*eG*eG*e[5mC]*e[5mC])” has a platelet count ([1]; day 8) of 548000 µL⁻¹, a platelet count ([1]; day 8, chronic dose regimen (*)) of 401000 µL⁻¹ and a platelet count ([1]; day 15) of 559000 µL⁻¹. The platelet count ([1]; day 15, chronic dose regimen (*)) was 396000 µL⁻¹, the platelet count ([1]; day 22) was 466000 µL⁻¹ and the platelet count ([1]; day 22, chronic dose regimen (*)) was 347000 µL⁻¹. The platelet count ([1]; day 29) was 475000 µL⁻¹, the platelet count ([1]; day 29, chronic dose regimen (*)) was 370000 µL⁻¹ and the platelet count ([1]; day 36) was 505000 µL⁻¹. The platelet count ([1]; day 36, chronic dose regimen (*)) was 379000 µL⁻¹, the platelet count ([1]; day 43) was 490000 µL⁻¹ and the platelet count ([1]; day 43, chronic dose regimen (*)) was 391000 µL⁻¹. For the same substance, the platelet count ([1]; day 50) was 487000 µL⁻¹, the platelet count ([1]; day 50, chronic dose regimen (*)) was 351000 µL⁻¹ and the Monocytes ([1]; day 57) was “n.d. 3.2%”. For the same substance, the platelet count ([1]; day 57) was 528000 µL⁻¹, the Monocytes ([1]; day 64) was “n.d. 3.5%” and the platelet count ([1]; day 64) was 496000 µL⁻¹. The Monocytes ([1]; day 71) was “n.d. 4.7%”, the platelet count ([1]; day 71) was 465000 µL⁻¹ and the Monocytes ([1]; day 78) was “n.d. 4.5%”. The platelet count ([1]; day 78) was 449000 µL⁻¹, the Monocytes ([1]; day 85) was “n.d. 3.5%” and the platelet count ([1]; day 85) was 458000 µL⁻¹. For the same substance, the platelet count ([1]; day −5) was 573000 µL⁻¹, the platelet count ([1]; day −5, chronic dose regimen (*)) was 434000 µL⁻¹ and the platelet count ([1]; day −14) was 528000 µL⁻¹. For the same substance, the platelet count ([1]; day −14, chronic dose regimen (*)) was 387000 µL⁻¹.
With “TGGTAATCCACTTTCAGAGG (eT*eG*eG*eT*eA*dA*dT*d[5mC]*d[5mC]*dA*d[5mC]*dT*dT*dT*d[5mC]*eA*eG*eA*eG*eG) [ISIS 404071, 5-10-5 MOE gapmer targeting murine Factor XI, target start site 869]” the “TAT levels in the colon (in words)” value ([2]; Colitis Study D) was “decreased in a dose-dependent manner”, the “TAT levels in colon” value ([2]; 10 mpk) was 1.79 ng/mg protein and the “TAT levels in colon” value ([2]; 20 mpk) was 0.65 ng/mg protein. The “TAT levels in colon” value ([2]; 40 mpk) was 0.75 ng/mg protein, the “stool softness/diarrhea (in words)” value [3] was “normal to soft stool but no diarrhea” and the “Factor XI levels (in words)” value ([4]; Colitis Study E, 40 mg/kg) was “significantly decreased”. The “% inhibition of Factor XI mRNA levels” value ([4]; no human recombinant FXI) was 82%, the “% inhibition of Factor XI mRNA levels” value ([4]; plus human recombinant FXI 20 ug/mouse/day) was 83% and the “bradykinin levels (in words)” value ([5]; Colitis Study D) was “decreased”. For the same substance, the “Bradykinin levels in colon” value ([5]; 10 mpk) was 0.03 ng/mg protein, the “Bradykinin levels in colon” value ([5]; 20 mpk) was 0.00 ng/mg protein and the “Bradykinin levels in colon” value ([5]; 40 mpk) was 0.02 ng/mg protein. For the same substance, the “colon histology, lesions (in words)” value ([6]; FIG. 8) was “significantly fewer mucosa ulcerative lesions”, the “colon histology, lesions (in words)” value ([6]; FIG. 8, listed as Factor XI) was “significantly milder ulcerative colitis lesions” and the mucosa ulcers ([6]; FIG. 8D, DSS control 2-4/animal) was > 1 /animal. For the same substance, the “Liver ALT” value [7] was 56.6, the “Liver AST” value [7] was 86.75 and the “Liver Weight as a % of Body Weight” value [7] was 6.089%. The “Spleen Weight as a % of Body Weight” value [7] was 0.759 % of Body Weight.
